{
  "source": "patent US9889184B2",
  "about": "(priority 2008, dated 2018)",
  "key": {"Fov hyphae [1]": {"system": "Fov hyphae", "test": "Uptake of FITC-labeled dextrans into NaD1-treated hyphae", "type": "cell-based, Fusarium oxysporum f. sp. vasinfectum", "description": "The uptake of FITC-labeled dextran following NaD1 treatment of fungal hyphae was also studied. Fov hyphae were grown as described above and incubated with NaD1 (final concentration 0.1, 2, 10 or 50 μM) or an equivalent volume of water for 2 h at RT with gentle agitation. Hyphae were washed twice for 10 min with half-strength PDB to remove excess NaD1 before FITC dextrans of either 4 kDa (FD-4, Sigma-Aldrich) or 10 kDa (FD-10, Sigma-Aldrich) were added to a final concentration of 1 μM. Hyphae were incubated for a further 30 min at RT and then washed twice with half strength PDB to remove excess dextrans. Fluorescence microscopy was used to visualize hyphae as described for SYTOX® green. A second assay was performed under the same conditions except the dextrans were added at the same time as NaD1."}, "Fov hyphae [2]": {"system": "Fov hyphae", "test": "Membrane permeabilization of Fov hyphae, SYTOX green uptake", "type": "cell-based, Fusarium oxysporum f. sp. vasinfectum", "description": "Fov hyphae were grown in half-strength PDB (10 mL in a 50 mL tube) from a starting concentration of 5×10^4 spores/mL for 18 h at 25° C. with constant shaking. Samples (1 mL) were then removed and NaD1 (final concentration 2 μM), NaD1R&A (final concentration 2 μM) or an equivalent volume of water was added before incubation for 2 h at RT with gentle agitation. SYTOX® green (Invitrogen-Molecular Probes, Eugene, Oreg.) was added to a final concentration of 0.5 μM and the hyphae were allowed to stand for 10 min. Hyphae (20 μL) were then transferred to microscope slides (SuperFrost (Registered) Plus, Menzel-Glaser) and covered with glass coverslips for visualization of SYTOX® green uptake using an Olympus BX51 fluorescence microscope. SYTOX® green fluorescence was detected using an MWIB filter (excitation wavelength 460-490 nm). Images were captured using a SPOT RT 3CCD digital camera (Diagnostic Instruments) and processed using Adobe Photoshop. SYTOX® green uptake was quantitated by measuring fluorescence of hyphae in microtitre trays using a fluorimeter (SpectraMax M2; Molecular Devices) with excitation and emission wavelengths of 488 nm and 538 nm, respectively.\nThe effect of temperature on membrane permeabilization of Fov hyphae by NaD1 was monitored as described, except hyphae were pre-equilibrated for 60 min at either 10°, 4° or 0° C. before addition of NaD1 and all subsequent steps were carried out at these temperatures.\nThe kinetics of membrane permeabilization by NaD1 were studied. Fov hyphae were grown in half-strength PDB from a starting concentration of 5×10^4 spores/mL for 18 h at 25° C. Hyphae (80 μL) were then transferred to 96-well microtitre plates and incubated with SYTOX® green (0.5 μM) for 10 min prior to the addition of 20 μL of peptide solution to give final protein concentrations of 0.2, 0.4, 0.8, 1.6, 3.12, 6.25, 12.5, 25, 50 or 100 μM. Fluorescence readings (Ex; 488 nm, Em; 538 nm) were then taken every 2 min for 3 h using a fluorimeter (SpectraMax M2)."}, "Fov hyphae [3]": {"system": "Fov hyphae", "test": "Uptake of NaD1 into hyphae (immunogold EM, bimane fluorescence, immunoblot)", "type": "cell-based, Fusarium oxysporum f. sp. vasinfectum", "description": "Fov hyphae were grown as described above prior to the addition of NaD1 (10 μM final concentration) to 1 mL of the culture. Samples (100 μL) were collected after 0, 5, 10, 30, 60, 90 and 120 min. Hyphae were collected by centrifugation (10 min, 10,000×g) and the supernatant was stored at −20° C. for analysis. Hyphae were washed (2×10 min) with KCl (0.6 M) to remove any ionically bound protein before they were resuspended in 50 mM CAPS buffer (pH 10.0) containing 10 mM DTT for 20 min. Hyphae were collected by centrifugation and the supernatant, containing cell wall proteins, was collected for analysis. The pellet (containing cells) was resuspended in water and the cells were lysed using glass beads (Sigma, 60 mg) and vortexing (3×10 min). Cellular debris was removed by centrifugation (16,000×g, 10 min) and the supernatant collected for analysis. All samples were then analyzed by SDS-PAGE and immunoblotting.\nFov hyphae were grown for 18 h in half-strength PDB (5 mL) with vigorous shaking at 25° C. from a starting spore suspension of 5×10^4/mL. Hyphae were then treated with 2 μM NaD1 or an equivalent volume of water for 2 h at RT with gentle agitation, and were washed twice in 0.6 M KCl and three times in PBS before fixation in 4% (w/v) paraformaldehyde in PBS for 1 h at 4° C. Hyphae were again washed three times in PBS before dehydration in a standard ethanol series (15 min each, 50%, 70% and 90% ethanol, 3×15 min 100% ethanol). Hyphae were then infiltrated with LR White resin (ProSciTech) for 1 h at RT, followed by 18 h at 4° C., 1 h at RT and 24 h at 60° C. Fresh LR White resin was used at each step. Ultrathin sections were cut and placed on Formvar coated gold grids.\nGrids were blocked with PBS containing 8% (w/v) BSA and 1% (v/v) Triton X-100 for 1 h and labeled with α-NaD1 antibodies (2 μg/mL in blocking buffer) for 1 h. Grids were washed in blocking buffer (3×10 min) and labeled with 15 nm gold particle labeled goat α-rabbit IgG antibodies (ProSciTech diluted 1 in 20 for 1 h. Grids were washed again in blocking solution (3×10 min) followed by water (15 min) before being air-dried. A JEOL JEM2010HC x e80 KV transmission electron microscope was used to examine labeled grids. Pictures were taken on Kodak EM film (ProSciTech) and developed in a dark room before scanning on a Hewlett Packard Scanjet 5P scanner.\nHyphae grown for 18 h as described were treated with NaD1-bimane (2 μM) for between 10 min and 6 h. Hyphae were then visualized by fluorescence microscopy using an MWU filter (excitation wavelength of 330-385 nm)."}, "Fov infection": {"system": "Fov infection", "details": "transgenic cotton expressing NaD1 vs untransformed parent variety, field trials; cited from earlier work"}},
  "data": [
    {"substance": "NaD1: plant defensin isolated from floral tissue of Nicotiana alata (SEQ ID NO:12) (RECKTESNTFPGICITKPPCRKACISEKFTDGHCSKILRRCLCTKPC; Nicotiana alata (NaD1))", "values": [
      {"measurement": "entry of 10 kDa FITC-dextran (23 Å) into NaD1-treated hyphae", "setting": "Fov hyphae [1]; even at very high concentrations of NaD1", "result": "excluded"},
      {"measurement": "entry of 4 kDa FITC-dextran (14 Å) into NaD1-treated hyphae", "setting": "Fov hyphae [1]; same NaD1 concentration that led to SYTOX green uptake", "result": "entered hyphae"},
      {"measurement": "NaD1-induced permeabilization (SYTOX green uptake)", "setting": "Fov hyphae [2]; 0° C., compared with 4° C.", "result": "reduced even further"},
      {"measurement": "permeabilization of Fov hyphal membranes (SYTOX green)", "setting": "Fov hyphae [2]; 0.1, 2 or 10 μM NaD1 or 10 μM NaD1R&A", "result": "permeabilized hyphae"},
      {"measurement": "NaD1-induced permeabilization (SYTOX green uptake)", "setting": "Fov hyphae [2]; 4° C.", "result": "only a small degree of permeabilization"},
      {"measurement": "NaD1-induced permeabilization (SYTOX green uptake)", "setting": "Fov hyphae [2]; 10° C., less than at 25° C.", "result": "substantial uptake of SYTOX® green"},
      {"measurement": "NaD1 concentration up to which Vmax increased linearly; above it rate unchanged (saturable)", "setting": "Fov hyphae [2]; Vmax = maximum rate of fluorescence increase", "result": 6.25, "unit": "µM"},
      {"measurement": "NaD1 concentration up to which the rate of permeabilization increased progressively", "setting": "Fov hyphae [2]; above it (up to 50 μM) very little difference in kinetics", "result": 3, "unit": "µM"},
      {"measurement": "lag time before permeabilization", "setting": "Fov hyphae [2]; all NaD1 concentrations", "result": "around 20 min"},
      {"measurement": "time after which fluorescence began to plateau", "setting": "Fov hyphae [2]; all NaD1 concentrations", "result": 90, "unit": "min"},
      {"measurement": "SYTOX green uptake", "setting": "Fov hyphae [2]; lowest concentration of NaD1 (0.1 μM)", "result": "a small amount of SYTOX® green uptake occurred"},
      {"measurement": "NaD1 in cytoplasm of treated hyphae, immunogold α-NaD1 labeling", "setting": "Fov hyphae [3]; NaD1 10 μM, 2 h, many, but not all, hyphae", "result": "heavily labeled"},
      {"measurement": "time after which NaD1 uptake occurred", "setting": "Fov hyphae [3]; SDS-PAGE and immunoblotting of cytoplasmic contents", "result": 20, "unit": "min"},
      {"measurement": "time until which NaD1 in the Fov cytoplasm increased", "setting": "Fov hyphae [3]; immunoblotting, decreased slightly afterwards", "result": 60, "unit": "min"},
      {"measurement": "protection from the pathological effects of Fov infection", "setting": "Fov infection", "result": "significantly protected"}
    ]}
  ]
}
